From ChEMBL document CHEMBL1201862, “PubChem BioAssay data set” (2004)
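Values below derive from 48-hour exposures of cells grown in 96-well plates, with endpoints linearly interpolated between the two concentrations bracketing the appropriate inhibition level. Here, GI50 denotes the concentration required for 50% inhibition of growth.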 The source made the active and inactive calls. Cut-off read from the data, not from the text of the source: active = GI50 up to about 1.1 µM and inactive = higher.

Assays:
Test in all cases: growth of human tumour cells (NCI), 48 h
A498 = test system: A498
A549 = test system: A549
BT-549 = test system: BT-549
HCC 2998 = test system: HCC 2998
HT-29 = test system: HT-29
IGROV-1 = test system: IGROV-1
K562 = test system: K562
KM12 = test system: KM12
MCF7 = test system: MCF7
Malme-3M = test system: Malme-3M
NCI-H23 = test system: NCI-H23
OVCAR-3 = test system: OVCAR-3
RXF 393 = test system: RXF 393
SF-268 = test system: SF-268
SF-295 = test system: SF-295
SK-MEL-2 = test system: SK-MEL-2
SNB-19 = test system: SNB-19
SNB-75 = test system: SNB-75
T47D = test system: T47D
UO-31 = test system: UO-31

Measured: GI50

O=C(NCP(=O)(c1ccccc1)c1ccccc1)OCc1ccccc1
inactive: A498 > 100 µM | A549 66.8 µM | BT-549 > 100 µM | HCC 2998 > 100 µM | HT-29 > 100 µM | IGROV-1 > 100 µM | K562 > 100 µM | KM12 > 100 µM | MCF7 > 100 µM | Malme-3M > 100 µM | NCI-H23 > 100 µM | OVCAR-3 54.3 µM | RXF 393 82.6 µM | SF-268 21.4 µM | SF-295 58.6 µM | SK-MEL-2 > 100 µM | SNB-19 > 100 µM | SNB-75 6.65 µM | T47D > 100 µM | UO-31 > 100 µM

COC(=O)c1nc2c(C)c(O)c(O)c([C@H](C)CCC=C(C)C)c2o1
inactive: A498 21.7 µM | A549 27.9 µM | BT-549 37.6 µM | HCC 2998 30.1 µM | HT-29 19.5 µM | IGROV-1 20.9 µM | K562 50.6 µM | KM12 23.3 µM | MCF7 36.3 µM | Malme-3M 26.7 µM | NCI-H23 28.1 µM | OVCAR-3 26.5 µM | RXF 393 21.4 µM | SF-268 33.3 µM | SF-295 25 µM | SK-MEL-2 20.5 µM | SNB-19 38.5 µM | SNB-75 18.2 µM | T47D 39.8 µM | UO-31 17.7 µM

NCC(=O)Nc1ccc(S(=O)(=O)O)c2cc(S(=O)(=O)O)cc(S(=O)(=O)O)c12
inactive: A498 > 100 µM | A549 > 100 µM | BT-549 > 100 µM | HCC 2998 > 100 µM | HT-29 > 100 µM | IGROV-1 > 100 µM | K562 > 100 µM | KM12 > 100 µM | MCF7 > 100 µM | Malme-3M > 100 µM | NCI-H23 > 100 µM | OVCAR-3 > 100 µM | RXF 393 > 100 µM | SF-268 > 100 µM | SF-295 > 100 µM | SK-MEL-2 > 100 µM | SNB-19 > 100 µM | SNB-75 > 100 µM | T47D > 100 µM | UO-31 > 100 µM

O=C1C2C3C=CC(C2C(=O)N1CN1CCOCC1)C1C2C(=O)N(CN4CCOCC4)C(=O)C2C31 (stereo not given)
inactive: A498 > 57.4 µM | A549 > 56 µM | BT-549 > 100 µM | HCC 2998 > 46.5 µM | HT-29 > 60 µM | IGROV-1 > 56 µM | K562 25.8 µM | KM12 > 44.7 µM | MCF7 > 100 µM | Malme-3M > 100 µM | NCI-H23 > 47.9 µM | OVCAR-3 > 55.7 µM | RXF 393 > 49 µM | SF-268 > 44.5 µM | SF-295 > 62.2 µM | SK-MEL-2 > 44 µM | SNB-19 > 48 µM | SNB-75 > 47.3 µM | T47D > 100 µM | UO-31 > 54 µM

O=S(=O)(O)c1cc(/N=N/c2cc(S(=O)(=O)O)c3cccnc3c2O)ccc1/C=C/c1ccc(/N=N/c2cc(S(=O)(=O)O)c3cccnc3c2O)cc1S(=O)(=O)O
inactive: A498 > 100 µM | A549 > 100 µM | BT-549 > 100 µM | HCC 2998 > 100 µM | HT-29 > 100 µM | IGROV-1 > 100 µM | K562 34 µM | KM12 > 100 µM | MCF7 > 100 µM | Malme-3M > 100 µM | NCI-H23 > 100 µM | OVCAR-3 > 100 µM | RXF 393 > 31.6 µM | SF-268 > 100 µM | SF-295 > 100 µM | SK-MEL-2 > 100 µM | SNB-19 > 100 µM | SNB-75 > 100 µM | T47D > 100 µM | UO-31 > 100 µM
